system: SW480; test: Cytotoxicity against human SW480 cells by MTT assay; assay type: functional, cell-based

Row | SMILES | IC50 [µM]
1 | OC[C@H](Cc1c[nH]c2ccccc12)NCc1c2ccccc2cc2ccccc12 | > 40
2 | CC(C)(O)[C@H](Cc1c[nH]c2ccccc12)NCc1c2ccccc2cc2ccccc12 | 11.7
3 | CCC(O)(CC)[C@H](Cc1c[nH]c2ccccc12)NCc1c2ccccc2cc2ccccc12 | > 40
4 | CCCC(O)(CCC)[C@H](Cc1c[nH]c2ccccc12)NCc1c2ccccc2cc2ccccc12 | > 40
5 | CCCCC(O)(CCCC)[C@H](Cc1c[nH]c2ccccc12)NCc1c2ccccc2cc2ccccc12 | > 40
6 | Cn1cc(C[C@@H](CO)NCc2c3ccccc3cc3ccccc23)c2ccccc21 | 13.5
7 | Cn1cc(C[C@H](NCc2c3ccccc3cc3ccccc23)C(C)(C)O)c2ccccc21 | 15.1
8 | CCC(O)(CC)[C@H](Cc1cn(C)c2ccccc12)NCc1c2ccccc2cc2ccccc12 | > 40
9 | CCCC(O)(CCC)[C@H](Cc1cn(C)c2ccccc12)NCc1c2ccccc2cc2ccccc12 | > 40
10 | CCCCC(O)(CCCC)[C@H](Cc1cn(C)c2ccccc12)NCc1c2ccccc2cc2ccccc12 | > 40
11 | CCn1cc(C[C@@H](CO)NCc2c3ccccc3cc3ccccc23)c2ccccc21 | 17.4
12 | CCn1cc(C[C@H](NCc2c3ccccc3cc3ccccc23)C(C)(C)O)c2ccccc21 | 17.6
13 | CCn1cc(C[C@H](NCc2c3ccccc3cc3ccccc23)C(O)(CC)CC)c2ccccc21 | > 40
14 | CCCC(O)(CCC)[C@H](Cc1cn(CC)c2ccccc12)NCc1c2ccccc2cc2ccccc12 | > 40
15 | CCCCC(O)(CCCC)[C@H](Cc1cn(CC)c2ccccc12)NCc1c2ccccc2cc2ccccc12 | > 40
16 | CC(=O)N(Cc1c2ccccc2cc2ccccc12)[C@H](CO)Cc1c[nH]c2ccccc12 | 17.3
17 | CC(=O)N(Cc1c2ccccc2cc2ccccc12)[C@@H](Cc1c[nH]c2ccccc12)C(C)(C)O | 17.2
18 | O=C(c1ccccc1)N(Cc1c2ccccc2cc2ccccc12)[C@H](CO)Cc1c[nH]c2ccccc12 | 30.7
19 | CC(C)(O)[C@H](Cc1c[nH]c2ccccc12)N(Cc1c2ccccc2cc2ccccc12)C(=O)c1ccccc1 | > 40

system: A549; test: Cytotoxicity against human A549 cells by MTT assay; assay type: functional, cell-based

Row | SMILES | IC50 [µM]
20 | OC[C@H](Cc1c[nH]c2ccccc12)NCc1c2ccccc2cc2ccccc12 | > 40
21 | CC(C)(O)[C@H](Cc1c[nH]c2ccccc12)NCc1c2ccccc2cc2ccccc12 | 11
22 | CCC(O)(CC)[C@H](Cc1c[nH]c2ccccc12)NCc1c2ccccc2cc2ccccc12 | 11.6
23 | CCCC(O)(CCC)[C@H](Cc1c[nH]c2ccccc12)NCc1c2ccccc2cc2ccccc12 | 10.9
24 | CCCCC(O)(CCCC)[C@H](Cc1c[nH]c2ccccc12)NCc1c2ccccc2cc2ccccc12 | > 40
25 | Cn1cc(C[C@@H](CO)NCc2c3ccccc3cc3ccccc23)c2ccccc21 | 16.5
26 | Cn1cc(C[C@H](NCc2c3ccccc3cc3ccccc23)C(C)(C)O)c2ccccc21 | 11.8
27 | CCC(O)(CC)[C@H](Cc1cn(C)c2ccccc12)NCc1c2ccccc2cc2ccccc12 | > 40
28 | CCCC(O)(CCC)[C@H](Cc1cn(C)c2ccccc12)NCc1c2ccccc2cc2ccccc12 | > 40
29 | CCCCC(O)(CCCC)[C@H](Cc1cn(C)c2ccccc12)NCc1c2ccccc2cc2ccccc12 | > 40
30 | CCn1cc(C[C@@H](CO)NCc2c3ccccc3cc3ccccc23)c2ccccc21 | 16.5
31 | CCn1cc(C[C@H](NCc2c3ccccc3cc3ccccc23)C(C)(C)O)c2ccccc21 | 15
32 | CCn1cc(C[C@H](NCc2c3ccccc3cc3ccccc23)C(O)(CC)CC)c2ccccc21 | > 40
33 | CCCC(O)(CCC)[C@H](Cc1cn(CC)c2ccccc12)NCc1c2ccccc2cc2ccccc12 | > 40
34 | CCCCC(O)(CCCC)[C@H](Cc1cn(CC)c2ccccc12)NCc1c2ccccc2cc2ccccc12 | > 40
35 | CC(=O)N(Cc1c2ccccc2cc2ccccc12)[C@H](CO)Cc1c[nH]c2ccccc12 | 15.2
36 | CC(=O)N(Cc1c2ccccc2cc2ccccc12)[C@@H](Cc1c[nH]c2ccccc12)C(C)(C)O | 14.5
37 | O=C(c1ccccc1)N(Cc1c2ccccc2cc2ccccc12)[C@H](CO)Cc1c[nH]c2ccccc12 | 13.2
38 | CC(C)(O)[C@H](Cc1c[nH]c2ccccc12)N(Cc1c2ccccc2cc2ccccc12)C(=O)c1ccccc1 | > 40

system: MCF7; test: Cytotoxicity against human MCF7 cells by MTT assay; assay type: functional, cell-based

Row | SMILES | IC50 [µM]
39 | OC[C@H](Cc1c[nH]c2ccccc12)NCc1c2ccccc2cc2ccccc12 | > 40
40 | CC(C)(O)[C@H](Cc1c[nH]c2ccccc12)NCc1c2ccccc2cc2ccccc12 | 12.5
41 | CCC(O)(CC)[C@H](Cc1c[nH]c2ccccc12)NCc1c2ccccc2cc2ccccc12 | 24.3
42 | CCCC(O)(CCC)[C@H](Cc1c[nH]c2ccccc12)NCc1c2ccccc2cc2ccccc12 | 23.9
43 | CCCCC(O)(CCCC)[C@H](Cc1c[nH]c2ccccc12)NCc1c2ccccc2cc2ccccc12 | > 40
44 | Cn1cc(C[C@@H](CO)NCc2c3ccccc3cc3ccccc23)c2ccccc21 | 16.6
45 | Cn1cc(C[C@H](NCc2c3ccccc3cc3ccccc23)C(C)(C)O)c2ccccc21 | 15.2
46 | CCC(O)(CC)[C@H](Cc1cn(C)c2ccccc12)NCc1c2ccccc2cc2ccccc12 | > 40
47 | CCCC(O)(CCC)[C@H](Cc1cn(C)c2ccccc12)NCc1c2ccccc2cc2ccccc12 | > 40
48 | CCCCC(O)(CCCC)[C@H](Cc1cn(C)c2ccccc12)NCc1c2ccccc2cc2ccccc12 | > 40
49 | CCn1cc(C[C@@H](CO)NCc2c3ccccc3cc3ccccc23)c2ccccc21 | 14.9
50 | CCn1cc(C[C@H](NCc2c3ccccc3cc3ccccc23)C(C)(C)O)c2ccccc21 | 13.9
51 | CCn1cc(C[C@H](NCc2c3ccccc3cc3ccccc23)C(O)(CC)CC)c2ccccc21 | > 40
52 | CCCC(O)(CCC)[C@H](Cc1cn(CC)c2ccccc12)NCc1c2ccccc2cc2ccccc12 | > 40
53 | CCCCC(O)(CCCC)[C@H](Cc1cn(CC)c2ccccc12)NCc1c2ccccc2cc2ccccc12 | > 40
54 | CC(=O)N(Cc1c2ccccc2cc2ccccc12)[C@H](CO)Cc1c[nH]c2ccccc12 | 16.1
55 | CC(=O)N(Cc1c2ccccc2cc2ccccc12)[C@@H](Cc1c[nH]c2ccccc12)C(C)(C)O | 15.6
56 | O=C(c1ccccc1)N(Cc1c2ccccc2cc2ccccc12)[C@H](CO)Cc1c[nH]c2ccccc12 | 17.4
57 | CC(C)(O)[C@H](Cc1c[nH]c2ccccc12)N(Cc1c2ccccc2cc2ccccc12)C(=O)c1ccccc1 | > 40

system: SMMC-7721; test: Cytotoxicity against human SMMC7721 cells by MTT assay; assay type: functional, cell-based

Row | SMILES | IC50 [µM]
58 | OC[C@H](Cc1c[nH]c2ccccc12)NCc1c2ccccc2cc2ccccc12 | > 40
59 | CC(C)(O)[C@H](Cc1c[nH]c2ccccc12)NCc1c2ccccc2cc2ccccc12 | 13.4
60 | CCC(O)(CC)[C@H](Cc1c[nH]c2ccccc12)NCc1c2ccccc2cc2ccccc12 | 13
61 | CCCC(O)(CCC)[C@H](Cc1c[nH]c2ccccc12)NCc1c2ccccc2cc2ccccc12 | 17.3
62 | CCCCC(O)(CCCC)[C@H](Cc1c[nH]c2ccccc12)NCc1c2ccccc2cc2ccccc12 | > 40
63 | Cn1cc(C[C@@H](CO)NCc2c3ccccc3cc3ccccc23)c2ccccc21 | 15
64 | Cn1cc(C[C@H](NCc2c3ccccc3cc3ccccc23)C(C)(C)O)c2ccccc21 | 15.5
65 | CCC(O)(CC)[C@H](Cc1cn(C)c2ccccc12)NCc1c2ccccc2cc2ccccc12 | > 40
66 | CCCC(O)(CCC)[C@H](Cc1cn(C)c2ccccc12)NCc1c2ccccc2cc2ccccc12 | > 40
67 | CCCCC(O)(CCCC)[C@H](Cc1cn(C)c2ccccc12)NCc1c2ccccc2cc2ccccc12 | > 40
68 | CCn1cc(C[C@@H](CO)NCc2c3ccccc3cc3ccccc23)c2ccccc21 | 17.1
69 | CCn1cc(C[C@H](NCc2c3ccccc3cc3ccccc23)C(C)(C)O)c2ccccc21 | 13.6
70 | CCn1cc(C[C@H](NCc2c3ccccc3cc3ccccc23)C(O)(CC)CC)c2ccccc21 | > 40
71 | CCCC(O)(CCC)[C@H](Cc1cn(CC)c2ccccc12)NCc1c2ccccc2cc2ccccc12 | > 40
72 | CCCCC(O)(CCCC)[C@H](Cc1cn(CC)c2ccccc12)NCc1c2ccccc2cc2ccccc12 | > 40
73 | CC(=O)N(Cc1c2ccccc2cc2ccccc12)[C@H](CO)Cc1c[nH]c2ccccc12 | 14.1
74 | CC(=O)N(Cc1c2ccccc2cc2ccccc12)[C@@H](Cc1c[nH]c2ccccc12)C(C)(C)O | 12
75 | O=C(c1ccccc1)N(Cc1c2ccccc2cc2ccccc12)[C@H](CO)Cc1c[nH]c2ccccc12 | 20.7
76 | CC(C)(O)[C@H](Cc1c[nH]c2ccccc12)N(Cc1c2ccccc2cc2ccccc12)C(=O)c1ccccc1 | > 40

system: HL-60; test: Cytotoxicity against human HL60 cells by MTT assay; assay type: functional, cell-based

Row | SMILES | IC50 [µM]
77 | OC[C@H](Cc1c[nH]c2ccccc12)NCc1c2ccccc2cc2ccccc12 | > 40
78 | CC(C)(O)[C@H](Cc1c[nH]c2ccccc12)NCc1c2ccccc2cc2ccccc12 | 9.55
79 | CCC(O)(CC)[C@H](Cc1c[nH]c2ccccc12)NCc1c2ccccc2cc2ccccc12 | 12.2
80 | CCCC(O)(CCC)[C@H](Cc1c[nH]c2ccccc12)NCc1c2ccccc2cc2ccccc12 | 13.2
81 | CCCCC(O)(CCCC)[C@H](Cc1c[nH]c2ccccc12)NCc1c2ccccc2cc2ccccc12 | > 40
82 | Cn1cc(C[C@@H](CO)NCc2c3ccccc3cc3ccccc23)c2ccccc21 | 4.48
83 | Cn1cc(C[C@H](NCc2c3ccccc3cc3ccccc23)C(C)(C)O)c2ccccc21 | 4.78
84 | CCC(O)(CC)[C@H](Cc1cn(C)c2ccccc12)NCc1c2ccccc2cc2ccccc12 | > 40
85 | CCCC(O)(CCC)[C@H](Cc1cn(C)c2ccccc12)NCc1c2ccccc2cc2ccccc12 | > 40
86 | CCCCC(O)(CCCC)[C@H](Cc1cn(C)c2ccccc12)NCc1c2ccccc2cc2ccccc12 | > 40
87 | CCn1cc(C[C@@H](CO)NCc2c3ccccc3cc3ccccc23)c2ccccc21 | 6.18
88 | CCn1cc(C[C@H](NCc2c3ccccc3cc3ccccc23)C(C)(C)O)c2ccccc21 | 5.44
89 | CCn1cc(C[C@H](NCc2c3ccccc3cc3ccccc23)C(O)(CC)CC)c2ccccc21 | > 40
90 | CCCC(O)(CCC)[C@H](Cc1cn(CC)c2ccccc12)NCc1c2ccccc2cc2ccccc12 | > 40
91 | CCCCC(O)(CCCC)[C@H](Cc1cn(CC)c2ccccc12)NCc1c2ccccc2cc2ccccc12 | > 40
92 | CC(=O)N(Cc1c2ccccc2cc2ccccc12)[C@H](CO)Cc1c[nH]c2ccccc12 | 3.64
93 | CC(=O)N(Cc1c2ccccc2cc2ccccc12)[C@@H](Cc1c[nH]c2ccccc12)C(C)(C)O | 6.49
94 | O=C(c1ccccc1)N(Cc1c2ccccc2cc2ccccc12)[C@H](CO)Cc1c[nH]c2ccccc12 | 7.03
95 | CC(C)(O)[C@H](Cc1c[nH]c2ccccc12)N(Cc1c2ccccc2cc2ccccc12)C(=O)c1ccccc1 | > 40

From ChEMBL document CHEMBL1759950, “Design, synthesis and cytotoxic activities of novel β-amino alcohol derivatives” (Bioorg Med Chem Lett, 2011)
